In PMC11561238, “Discovery and binding mode of small molecule inhibitors of the apo form of human TDO2” (Scientific Reports, 2024):
Where “and” joins values, the source holds several entries; their conditions need not be identical. Identical values can stand only once. Like-named read-outs stand apart in the source and are kept apart here.

Assays:
SW48 cells = assay: SW48 cell viability assay (CellTiter-Glo); assay type: cell-based; settings: Homo sapiens
Method: (§1) The inhibitor compound 1 (Cpd-1) (IUPAC name ethyl 9-(3-(2-propylphenyl)-1-(1-phenylethyl)ureido)-2-methoxy-4-oxo-6,7,8,9-tetrahydro-4H-pyrido[1,2-a]pyrimidine-3-carboxylate) was identified as a hit in a high throughput screening campaign of a diverse set of 244,625 compounds in a human TDO2 cellular assay utilizing SW48 cells, which express a high level of endogenous TDO2. TDO2 activity was assessed by measuring the accumulation of the TDO2 product NFK and downstream product KYN in the supernatant. The potent inhibitor compound 2 (Cpd-2) (IUPAC name ethyl 9-(3-(2-isopropylphenyl)-1-((S)-1-phenylethyl)ureido)-2-methoxy-4-oxo-6,7,8,9-tetrahydro-4H-pyrido[1,2-a]pyrimidine-3-carboxylate) was identified during initial structure activity relationship studies of Cpd-1 analogs.
As inhibition of NFK and KYN production can simply be an effect of cytotoxicity, a viability assay (CellTiter-Glo 2.0 Luminescent Cell Viability Assay, Promega Catalog # G9243) was performed in parallel. CellTiter-Glo reagent was added (25 µl/well) to SW48 cell plates, incubated for 15 min at room temperature in the dark and luminescence was measured with the EnVision Multilabel Reader from Perkin Elmer according to the manufacturer’s instructions. […] For each compound concentration the percentage of activity compared to 0% and 100% effect was calculated as average ± STDEV (each concentration measured in duplicate). […]

apo-TDO2 = target: T1, apo-TDO2 (Homo sapiens, UniProt P48775); assay: Differential scanning fluorimetry (thermal shift) of apo-TDO2; assay type: binding; settings: for Δ Tm Boltzmann / Δ Tm Derivative: 25 µM; for Δ Tm Boltzmann / Δ Tm Derivative / Tm Boltzmann / Tm Derivative: in °C
T1 construct: a longer construct (His6-aa19-406, with aa406 corresponding to the wild type C-terminal residue), which was used for DSF and other experiments; made in house; host or cells: E. coli RP523 (hemB mutant, unable to synthesize heme)
T1 sequence (P48775 19-406): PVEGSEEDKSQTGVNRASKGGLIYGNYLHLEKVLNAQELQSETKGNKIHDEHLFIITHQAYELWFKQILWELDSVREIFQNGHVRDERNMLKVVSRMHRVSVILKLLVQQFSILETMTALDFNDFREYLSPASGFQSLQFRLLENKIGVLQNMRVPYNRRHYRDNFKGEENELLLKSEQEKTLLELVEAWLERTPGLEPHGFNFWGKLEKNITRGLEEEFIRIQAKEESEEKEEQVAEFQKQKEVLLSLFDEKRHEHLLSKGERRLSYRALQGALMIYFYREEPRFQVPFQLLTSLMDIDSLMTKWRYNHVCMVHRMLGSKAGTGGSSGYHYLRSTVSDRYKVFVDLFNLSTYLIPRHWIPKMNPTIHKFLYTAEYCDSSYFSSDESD
Method: […] S5 online).
Protein thermal stability and small molecule ligand binding of TDO2 in vitro was studied using differential scanning fluorimetry (DSF, also known as thermal shift assay)[34]. Assay ingredients and ligands were combined to obtain a mixture composed of 10 µM TDO2 and 10x SYPRO Orange, in assay buffer (50 mM HEPES-NaOH pH 8.0, 200 mM NaCl, 2 mM TCEP, 10% glycerol) and 2% final DMSO concentration. Small molecule chemical ligands were taken from DMSO stock solution (100 mM, 10 mM) and diluted in DMSO transferred to wells of PCR Plates (Micro Amp Fast 96-well Reaction Plates, Applied Biosystems) to ensure matching final DMSO concentrations.
DSF was carried out with a StepOnePlus™ real time PCR system. Thermal denaturation of TDO2 was monitored with a ramp rate of 1 K/min. Protein melting curves were evaluated using the Thermal Shift Software v 1.3. (Thermo Fisher Scientific) to derive differences in midpoint melting-temperatures (derivative model). The thermal shift (DTm) is documented as the difference between the reference midpoint melting temperature of proteins (containing 500 µM AMT) in the presence of the ligand vehicle (DMSO) and in the presence of ligand.
Supplementary Table S2. Differential scanning fluorimetry data corresponding to supplementary figure S4. The experiments were carried out in quadruplicate, or in triplicate where single outlier values (highlighted in bold italics) were excluded from calculation of the melting curves. AMT was added at a concentration of 500 µM; […] and […] were added at a concentration of 25 µM.

human TDO2 = target: T2, human TDO2 (Homo sapiens, UniProt P48775); assay: TDO2 cellular activity assay (SW48 cells, NFK + KYN in supernatant by LCMS); assay type: cell-based; settings: 24 h, 200 µM Trp
T2 construct: SW48 cells, which express a high level of endogenous TDO2; endogenous in cells; host or cells: SW48 cells (ATCC CCL-231)
T2 sequence (P48775 whole entry): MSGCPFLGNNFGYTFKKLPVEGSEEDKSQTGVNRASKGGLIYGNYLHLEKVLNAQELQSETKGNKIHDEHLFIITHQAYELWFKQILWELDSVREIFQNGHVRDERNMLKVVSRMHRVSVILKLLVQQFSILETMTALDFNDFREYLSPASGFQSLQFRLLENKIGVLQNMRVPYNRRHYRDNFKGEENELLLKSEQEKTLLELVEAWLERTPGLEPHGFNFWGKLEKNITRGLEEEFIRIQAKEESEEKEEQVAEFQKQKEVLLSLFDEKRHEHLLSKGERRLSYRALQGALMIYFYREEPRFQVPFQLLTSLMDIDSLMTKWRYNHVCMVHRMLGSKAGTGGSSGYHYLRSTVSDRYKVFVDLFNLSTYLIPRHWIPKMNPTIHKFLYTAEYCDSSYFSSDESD
Method: as §1
SW48 cells (source: American Type Culture Collection (ATCC), CCL-231) were used to measure the TDO2 inhibitory activity of compounds and were routinely maintained in DMEM high glucose/GlutaMAX^TM/pyruvate (Gibco, 10569010) 90% (v/v), FCS (Gibco, 10500, heat inactivated)10% (v/v), Penicillin/streptomycin (Gibco, 15140) 1% (v/v). […]
The 384 deep well plate containing 3 µl supernatant and 25 µl H2O per well were further processed for LCMS. […] NFK and kynurenine were quantified by LCMS, normalized to the internal standard Trp-(indole-d5) and the sum was calculated. […]

[1] = 25 µM compound with 500 µM AMT, compared to 59.2 °C in the absence of inhibitor, read-out: increase of the melting temperature of apo-TDO2
[2] = apo-TDO2 + 25 µM compound, no AMT, shift vs apo, single replicates
[3] = apo-TDO2 + 25 µM compound, no AMT, shift vs apo, single replicates, read-out: Δ Tm Boltzmann
[4] = apo-TDO2 + 25 µM compound, no AMT, shift vs apo, single replicates, read-out: Δ Tm Derivative
[5] = apo-TDO2 + 25 µM compound, no AMT, single replicates

| SMILES | IC50 (SW48 cells) [µM] | ΔTm at 25 µM (apo-TDO2; [1]) [°C] | Δ Tm Boltzmann (apo-TDO2; [2]) | Δ Tm Derivative (apo-TDO2; [2]) | ΔTm at 25 µM (apo-TDO2; [3]) [°C] | ΔTm at 25 µM (apo-TDO2; [4]) [°C] | Tm Boltzmann (apo-TDO2; [5]) | Tm Derivative (apo-TDO2; [5]) | IC50 (human TDO2) [nM] |
| --- | --- | --- | --- | --- | --- | --- | --- | --- | --- |
| CCOC(=O)c1c(OC)nc2n(c1=O)CCCC2N(C(=O)Nc1ccccc1C(C)C)[C@@H](C)c1ccccc1 (mixture of isomers) [Cpd-2, ethyl 9-(3-(2-isopropylphenyl)-1-((S)-1-phenylethyl)ureido)-2-methoxy-4-oxo-6,7,8,9-tetrahydro-4H-pyrido[1,2-a]pyrimidine-3-carboxylate] | > 10 | 14.5 | 21.65 and 21.58 and 21.17 | 21.51 and 21.53 and 21.2 | 21.4 | 21.5 | 70.45 | 70.37 and 70.39 and 70.41 and 70.08 | 14.8 |
| CCCc1ccccc1NC(=O)N(C(C)c1ccccc1)C1CCCn2c1nc(OC)c(C(=O)OCC)c2=O (stereo not drawn) [Cpd-1, ethyl 9-(3-(2-propylphenyl)-1-(1-phenylethyl)ureido)-2-methoxy-4-oxo-6,7,8,9-tetrahydro-4H-pyrido[1,2-a]pyrimidine-3-carboxylate] | > 10 | 11.2 | 11.41 and 11.37 and 11.43 | 7.28 and 6.95 and 6.97 | 10.3 | 6.57 | 59.1 and 60.21 and 60.17 and 60.23 | 55.45 and 56.16 and 55.84 and 55.85 | 327 |
